Reference: patent US12415844B2, “BCMA specific VCAR compositions and methods for use” (Poseida Therapeutics, Inc., priority 2017, dated 2025)
Where two headings read alike, the source gives them in different places.

Key:
cells [1] = test: AP1903 amount needed in vitro for effective signaling of cells; format: cell-based; details: equates to 10-100 nM
Procedure: The fixed dose of AP1903 for injection used, for example, may be 0.4 mg/kg intravenously infused over 2 hours. The amount of AP1903 needed in vitro for effective signaling of cells is 10-100 nM (1600 Da MW). This equates to […] or […]. Doses up to 1 mg/kg were well tolerated in the Phase I study of AP1903 described above. Therefore, 0.4 mg/kg may be a safe and effective dose of AP1903 for this Phase I study in combination with the therapeutic cells.

cells [2] = details: cited from earlier work
[3] = cited from earlier work

In the case of `CC[C@H](C(=O)N1CCCC[C@H]1C(=O)O[C@H](CCc1ccc(OC)c(OC)c1)c1cccc(OCC(=O)NCCNC(=O)COc2cccc([C@@H](CCc3ccc(OC)c(OC)c3)OC(=O)[C@@H]3CCCCN3C(=O)[C@@H](CC)c3cc(OC)c(OC)c(OC)c3)c2)c1)c1cc(OC)c(OC)c(OC)c1` (relative stereo) [AP1903, 2-Piperidinecarboxylic acid, 1-[(2S)-1-oxo-2-(3,4,5-trimethoxyphenyl)butyl]-, 1,2-ethanediylbis[imino(2-oxo-2,1-ethanediyl)oxy-3,1-phenylene[(1R)-3-(3,4-dimethoxyphenyl)propylidene]]ester, [2S-[1(R*),2R*[S*[S*[1(R*),2R*]]]]]-(9C1)], the amount needed for effective signaling, converted (1600 Da MW) (cells [1]) is listed as 16 to 160 µg/L, the “amount needed in vitro for effective signaling of cells” value (cells [2]) is listed as 10 to 100 nM and the “plasma levels versus dose” value ([3]; 0.01-1.0 mg/kg) is listed as “directly proportional to dose”. The “plasma level as % of maximal concentration” value (from here on “plasma level as %”) ([3]; 0.5 hours post-dose) was “approximately 18%”, the “plasma level as %” value ([3]; 2 hours post-dose) was roughly 7% and the “plasma level as %” value ([3]; 10 hours post-dose) was roughly 1%. For the same molecule, the well tolerated doses ([3]; Phase I study) was “up to 1 mg/kg”, the safety and tolerability ([3]; dose levels 0.01, 0.05, 0.1, 0.5 and 1.0 mg/kg IV over 2 hours) was “safe and well tolerated at all dose levels” and the pharmacokinetic profile ([3]; healthy volunteers) was “favorable pharmacokinetic profile”. The “mean Cmax” value ([3]; single doses 0.01-1.0 mg/kg infused IV over 2 hours, healthy volunteers, plasma) was 0.01 to 1.275 µg/mL.
